Values joined by “and” are separate entries in the source; they are usually repeats but may differ in a detail not shown here. Equal entries are not always repeated.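 Following 48 hours of exposure in 96-well plates, responses at five concentrations were used to interpolate endpoints linearly. At the GI50, growth is halved. TGI: concentration producing complete growth inhibition.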
Columns and labels:
Assay in all cases: NCI tumour cell line growth inhibition, 48 h
786-0 renal = tested on: 786-0 renal
A549 NSCLC = tested on: A549 NSCLC
DU-145 prostate = tested on: DU-145 prostate
HCT-15 colon = tested on: HCT-15 colon
HT29 colon = tested on: HT29 colon
SK-MEL-2 melanoma = tested on: SK-MEL-2 melanoma
SNB-75 CNS = tested on: SNB-75 CNS
T-47D breast = tested on: T-47D breast
UACC-257 melanoma = tested on: UACC-257 melanoma
SF-539 CNS = tested on: SF-539 CNS

Compound `Cc1c(Cl)cccc1N=NC(=O)NNc1cccc(Cl)c1C` has a TGI (786-0 renal) of 37.7 µM, a TGI (A549 NSCLC) of 45.2 µM and a TGI (DU-145 prostate) of 28.3 µM. The TGI (HCT-15 colon) was 30 µM, the TGI (HT29 colon) was 35.3 µM and the TGI (SK-MEL-2 melanoma) was 26.4 µM. For the same compound, the TGI (SNB-75 CNS) was 32.5 µM, the TGI (T-47D breast) was 24.2 µM and the TGI (UACC-257 melanoma) was 42.1 µM.

Work on `C=CC(C)C1(CCCOCc2ccccc2)C(=S)N2CCC3(CC24CCCC14)OCCO3` (configuration not stated) yielded a TGI (A549 NSCLC) greater than 100 µM, a TGI (HCT-15 colon) greater than 100 µM and a TGI (HT29 colon) greater than 100 µM. The TGI (SK-MEL-2 melanoma) was greater than 100 µM, the TGI (SNB-75 CNS) was 5.82 µM and the TGI (UACC-257 melanoma) was greater than 100 µM.

In the case of `CCN(CC)c1ccc(/C=C2\CCc3ccc([N+](=O)[O-])cc3C2=O)cc1`, the TGI (786-0 renal) is reported as greater than 100 µM, the TGI (A549 NSCLC) is reported as greater than 100 µM and the TGI (DU-145 prostate) is reported as greater than 100 µM. It also gave a TGI (HCT-15 colon) greater than 100 µM, a TGI (HT29 colon) of 2.21 µM and a TGI (SF-539 CNS) of 7.09 µM. For the same compound, the TGI (SNB-75 CNS) was 24.3 µM and the TGI (T-47D breast) was greater than 100 µM.

`CCOC1NC(=O)Oc2cc3ccccc3cc21` (configuration not stated) showed a TGI (786-0 renal) greater than 100 µM, a TGI (A549 NSCLC) greater than 100 µM and a TGI (DU-145 prostate) greater than 100 µM. For the same compound, the TGI (HCT-15 colon) was greater than 100 µM, the TGI (HT29 colon) was greater than 100 µM and the TGI (SF-539 CNS) was greater than 100 µM. For the same compound, the TGI (SNB-75 CNS) was greater than 100 µM, the TGI (T-47D breast) was greater than 100 µM and the TGI (UACC-257 melanoma) was greater than 100 µM.

Work on `CC1(C)C2CCC1C(=O)[C@@]1(C=CC(=O)CC1)C2` (some centres not stated) yielded a TGI (786-0 renal) greater than 100 µM, a TGI (A549 NSCLC) greater than 100 µM and a TGI (DU-145 prostate) greater than 100 µM. For the same compound, the TGI (HCT-15 colon) was greater than 100 µM, the TGI (HT29 colon) was greater than 100 µM and the TGI (SF-539 CNS) was greater than 100 µM. It also gave a TGI (SNB-75 CNS) greater than 100 µM, a TGI (T-47D breast) greater than 100 µM and a TGI (UACC-257 melanoma) greater than 100 µM.

Compound `NCCCNOCCCN` has a TGI (786-0 renal) greater than 100 µM, a TGI (A549 NSCLC) greater than 100 µM and a TGI (DU-145 prostate) greater than 100 µM. It also gave a TGI (HCT-15 colon) greater than 100 µM, a TGI (HT29 colon) greater than 100 µM and a TGI (SF-539 CNS) greater than 100 µM. The TGI (SK-MEL-2 melanoma) was greater than 100 µM and the TGI (T-47D breast) was greater than 100 µM.

Work on `COC(=O)CNC(=O)CCC(C)[C@H]1CCC2C3C(C[C@H](OC(C)=O)[C@@]21C)[C@@]1(C)CCC2(C[C@H]1C[C@H]3OC(C)=O)OOC1(CC[C@]3(C)C4C[C@H](OC(C)=O)[C@@]5(C)C(CC[C@@H]5C(C)CCC(=O)NCC(=O)OC)C4[C@H](OC(C)=O)C[C@@H]3C1)OO2` (some centres not stated) yielded a TGI (786-0 renal) of 1.42 µM, a TGI (A549 NSCLC) of 2.37 µM and a TGI (HCT-15 colon) of 5.42 µM. The TGI (HT29 colon) was 2.37 µM, the TGI (SF-539 CNS) was 1.8 µM and the TGI (SK-MEL-2 melanoma) was 1.66 µM. It also gave a TGI (SNB-75 CNS) of 5.17 µM, a TGI (T-47D breast) of 22.4 µM and a TGI (UACC-257 melanoma) of 2.74 µM.

`O=C(O)/C(=C\c1ccc(O)cc1)c1cccc2ccccc12` was tested, and the TGI (786-0 renal) was greater than 100 µM, the TGI (A549 NSCLC) was greater than 100 µM and the TGI (DU-145 prostate) was greater than 100 µM. The TGI (HCT-15 colon) was greater than 100 µM, the TGI (HT29 colon) was greater than 100 µM and the TGI (SK-MEL-2 melanoma) was greater than 100 µM. For the same compound, the TGI (SNB-75 CNS) was greater than 100 µM, the TGI (T-47D breast) was greater than 100 µM and the TGI (UACC-257 melanoma) was greater than 100 µM.

Compound `COc1ccc(-c2ncn(C[Si](C)(C)C)c2-c2ccc(OC)cc2)cc1` has a TGI (786-0 renal) of 18.7 µM, a TGI (A549 NSCLC) of 27.2 µM and a TGI (HCT-15 colon) of 18.3 µM. The TGI (HT29 colon) was 10.8 µM, the TGI (SF-539 CNS) was 27.5 µM and the TGI (SK-MEL-2 melanoma) was 20.5 µM. The TGI (SNB-75 CNS) was 28.3 µM and the TGI (UACC-257 melanoma) was 16.7 µM.

With `COC(=O)CCNc1c2ccccc2nc2cccc([N+](=O)[O-])c12` the TGI (786-0 renal) was 0.00134 µM, the TGI (A549 NSCLC) was 0.132 µM and 0.726 µM and the TGI (DU-145 prostate) was 19.6 µM. The GI50 (SF-539 CNS) was 0.00238 µM and 0.0131 µM, the TGI (SF-539 CNS) was 0.0115 µM and 0.0395 µM and the GI50 (SK-MEL-2 melanoma) was 0.00104 µM. It also gave a TGI (SK-MEL-2 melanoma) of 0.00284 µM, a GI50 (SNB-75 CNS) of 0.0185 µM and a TGI (SNB-75 CNS) of 0.0722 µM. The GI50 (T-47D breast) was 0.0283 µM, the TGI (T-47D breast) was 0.466 µM and the GI50 (UACC-257 melanoma) was 0.0023 µM and 0.0122 µM. For the same compound, the TGI (UACC-257 melanoma) was 0.00704 µM and 0.0476 µM.

Compound `COC1=CC(=O)C=C(OC)C1=O` has a TGI (A549 NSCLC) of 95.7 µM, a TGI (HCT-15 colon) of 80.9 µM and a TGI (HT29 colon) of 65.3 µM. The TGI (SF-539 CNS) was 37.8 µM, the TGI (SK-MEL-2 melanoma) was 17.7 µM and the TGI (SNB-75 CNS) was 55.9 µM. The TGI (UACC-257 melanoma) was 34.4 µM.

`COC(=O)C(Cc1ccc(N(C)C)cc1)(NC(=O)c1ccccc1)P(=O)(OC)OC` (configuration not stated) showed a TGI (A549 NSCLC) greater than 100 µM, a TGI (HCT-15 colon) greater than 100 µM and a TGI (HT29 colon) greater than 100 µM. It also gave a TGI (SF-539 CNS) greater than 100 µM, a TGI (SK-MEL-2 melanoma) greater than 100 µM and a TGI (SNB-75 CNS) greater than 100 µM. The TGI (UACC-257 melanoma) was greater than 100 µM.

— PubChem BioAssay (NCI)
